From PMC4890880 (ACS infectious diseases, 2016)
Counter-ions that a name gives are not always drawn. Like-named read-outs stand apart in the source and are kept apart here.

Legend:
[1] = test system: P. falciparum 3D7 parasites; experiment: Asexual erythrocytic-stage SYBR Green I proliferation assay, 1536-well; type: cell-based, Plasmodium falciparum
[2] = test system: Plasmodium berghei (Pb-Luc) exoerythrocytic-stage parasites; conditions: read-out: P. berghei (liver) IC50; Table S1, validation set of 50 antimalarials; Pb-Luc
[3] = test system: Plasmodium berghei (Pb-Luc) exoerythrocytic-stage parasites; experiment: microbe, parasite or virus in culture
[4] = read-out: P. falciparum (blood) IC50, Table S1, validation set of 50 antimalarials
[5] = Plasmodium falciparum, 3D7, read-out: P. falciparum (blood) IC50, Table S1, validation set of 50 antimalarials
[6] = read-out: P. berghei (liver) IC50, Table S1, validation set of 50 antimalarials, Pb-Luc
[7] = Plasmodium falciparum, 3D7, read-out: P. falciparum (blood) IC50
[8] = read-out: P. berghei (liver) IC50

| Compound | IC50 [1, 5] [nM] | IC50 [3, 6] [nM] | other results |
| --- | --- | --- | --- |
| OC(c1cc(C(F)(F)F)nc2c(C(F)(F)F)cccc12)C1CCCCN1 (racemic) [Mefloquine (Racemic), Mefloquine, reference compound] |  |  | IC50 [1, 4]: < 0.4 nM; IC50 [2]: 3060 nM |
| CCCCC[C@H]1CN[C@H](C(=O)N[C@H]([C@H]2O[C@H](SC)[C@H](O)[C@@H](O)[C@H]2O)[C@@H](C)Cl)C1 (relative stereo) [Cis-Mirincamycin, reference compound] |  |  | IC50 [1, 4]: 7560 nM; IC50 [2]: > 12500 nM |
| CCN(CC)CCCNc1ccnc2cc(Cl)ccc12 [AQ-13, reference compound] |  |  | IC50 [1, 4]: 8.7 nM; IC50 [2]: 3160 nM |
| CCN(CC)Cc1cc(Nc2ccnc3cc(Cl)ccc23)ccc1O [Amodiaquine, reference compound] | > 62500 | 1590 |  |
| CO[C@H]1O[C@@H]2O[C@@]3(C)CC[C@H]4[C@H](C)CC[C@@H]([C@H]1C)[C@@]24OO3 [Artemether, reference compound] | < 0.4 | 3140 |  |
| C[C@@H]1CC[C@H]2[C@@H](C)C(=O)O[C@@H]3O[C@@]4(C)CC[C@@H]1[C@]32OO4 [Artemisinin, reference compound] | 4.7 | 1720 |  |
| C[C@H]1[C@H](N2CCS(=O)(=O)CC2)O[C@@H]2O[C@@]3(C)CC[C@H]4[C@H](C)CC[C@@H]1[C@@]24OO3 [Artemisone, reference compound] | 0.7 | 178 |  |
| C[C@H]1[C@@H](O)O[C@@H]2O[C@@]3(C)CC[C@H]4[C@H](C)CC[C@@H]1[C@@]24OO3 [Artenimol, reference compound] | < 0.4 | 1560 |  |
| C[C@H]1[C@H](OC(=O)CCC(=O)O)O[C@@H]2O[C@@]3(C)CC[C@H]4[C@H](C)CC[C@@H]1[C@@]24OO3 [Artesunate, reference compound] | 0.9 | 246 |  |
| CC[C@H]1OC(=O)[C@H](C)[C@@H](O[C@H]2C[C@@](C)(OC)[C@@H](O)[C@H](C)O2)[C@H](C)[C@@H](O[C@@H]2O[C@H](C)C[C@H](N(C)C)[C@H]2O)[C@](C)(O)C[C@@H](C)CN(C)[C@H](C)[C@@H](O)[C@]1(C)O [Azithromycin, reference compound] | 257 | > 12500 |  |
| CCN(CC)CCCC(C)Nc1ccnc2cc(Cl)ccc12 (centres unmarked) [Chloroquine, reference compound] |  |  | IC50 [1, 7]: 2.1 nM; IC50 [3, 8]: > 12500 nM |
| CC(C)NC(=N)NC(=N)Nc1ccc(Cl)c(Cl)c1 [Chlorproguanil HCL, reference compound] |  |  | IC50 [1, 4]: 4720 nM; IC50 [2]: 500 nM |
| CC1(C)N=C(N)N=C(N)N1c1ccc(Cl)cc1 [Cycloguanil, reference compound] | 3.1 | 7 |  |
| C[C@@H]1C[C@@H]([C@H](O)CC2CC(=O)NC(=O)C2)C(=O)[C@@H](C)C1 [Cycloheximide, reference compound] |  |  | IC50 [1, 7]: 1.8 nM; IC50 [3, 8]: 20.7 nM |
| Nc1ccc(S(=O)(=O)c2ccc(N)cc2)cc1 [Dapsone, reference compound] | > 62500 | 2440 |  |
| CC(=O)N(O)CCCCCNC(=O)CCC(=O)N(O)CCCCCNC(=O)CCC(=O)N(O)CCCCCN [Deferoxamine, reference compound] | > 10000 | > 12500 |  |
